Measurements from patent US20050192371A1, “Preparation and use of photopolymerized microparticles” (priority 1998, published 2005).

Key:
[1] = Drug release / degradation of PMSA microparticles in phosphate-buffered saline; assay type: physicochemical; conditions: FIG. 13; tacrine absorbance at 322 nm, Rose Bengal at 550 nm
Method: The centrifuge tube was shaken to disperse the particles throughout the solution and placed in a 37° C. temperature bath for 3 minutes. The tube was then immediately centrifuged, and the buffer was drawn off and analyzed for drug concentration. The centrifuge tube was refilled with 37° C. PBS, and the cycle was repeated for about 3 hours. The tubes remained in the temperature bath for 3 minutes for the first hour, and 5-10 minutes for the remainder of the time data was collected. UV-Vis spectrophotrometry (Model 8452, Hewlett Packard) was used to determine the concentration of tacrine (absorbance was measured at 322 nm) in experiment samples.
Drug release experiments illustrate the release properties of the microparticles formed in the photopolymerization PCA process. […] The Rose Bengal release profile is also affected by photobleaching of particles in room light. This may explain the lag time at the beginning of the Rose Bengal release in FIG. 13.

[2] = Release of Rose Bengal from MSA disks versus mass fraction degraded; assay type: physicochemical; conditions: FIG. 14; homogeneous and heterogeneous MSA disks, 10 ml PBS, 37° C., absorbance 550 nm
From the text: Crosslinked particles containing Rose Bengal were incorporated in a MSA matrix and polymerized into disks. Rose Bengal was also homogeneously incorporated into another set of MSA disks and polymerized. Advantages of using a particle-polymer composite include multi-mode degradation and release possible through the use of different biocompatible polymers and drugs, ease of control of surface degradation, and in one particular application, bone growth is facilitated by the resulting porous structures.
Disk samples were 0.25 to 0.3 grams, 13 mm diameter and 1.5 mm thick. Disks were placed in 10 ml of PBS buffer at 37° C. to monitor the degradation.
The absorbance of Rose Bengal was measured at 550 nm, and the disks were weighed to monitor the degradation.

| Compound | release profile from PMSA particles into PBS buffer [1] | release behavior as a function of the mass fraction of the disks degraded [2] |
| --- | --- | --- |
| O=C([O-])c1c(Cl)c(Cl)c(Cl)c(Cl)c1-c1c2cc(I)c(=O)c(I)c-2oc2c(I)c([O-])c(I)cc12.[Na+].[Na+] [Rose Bengal] | some influence of diffusion in the release | linear relationship between degradation and release |
| Nc1c2c(nc3ccccc13)CCCC2 [tacrine, 9-amino-1,2,3,4-tetrahydroacridine] | follows the curve for surface erosion of a sphere |  |
